Measured values: paper PMC11062922 (Nature Chemical Biology, 2023)

Assays:
AAK1 = biological target: T1, AAK1 (Homo sapiens, UniProt Q2M2I8); test: Kinobeads two-dose competition binding: AAK1; conditions: for CATDS: sheet CATDS matrix 2, Gene Name AAK1; for potency estimated from few doses: sheet "Kinobeads Drugmatrix - all", unit inferred, same values below 1000 recur in sheet "nanomolar", read-out: Kinobeads Drugmatrix - all: apparent Kd, AAK1;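 for all read-outs here: kinobeads competition pulldown from cell lysate, compound preincubated 45 min at 4 °C, bead-bound protein measured by label-free mass spectrometry against DMSO vehicle control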
T1 construct: to maximize the representation of endogenous proteins; endogenous in cells
T1 sequence (Q2M2I8 whole entry): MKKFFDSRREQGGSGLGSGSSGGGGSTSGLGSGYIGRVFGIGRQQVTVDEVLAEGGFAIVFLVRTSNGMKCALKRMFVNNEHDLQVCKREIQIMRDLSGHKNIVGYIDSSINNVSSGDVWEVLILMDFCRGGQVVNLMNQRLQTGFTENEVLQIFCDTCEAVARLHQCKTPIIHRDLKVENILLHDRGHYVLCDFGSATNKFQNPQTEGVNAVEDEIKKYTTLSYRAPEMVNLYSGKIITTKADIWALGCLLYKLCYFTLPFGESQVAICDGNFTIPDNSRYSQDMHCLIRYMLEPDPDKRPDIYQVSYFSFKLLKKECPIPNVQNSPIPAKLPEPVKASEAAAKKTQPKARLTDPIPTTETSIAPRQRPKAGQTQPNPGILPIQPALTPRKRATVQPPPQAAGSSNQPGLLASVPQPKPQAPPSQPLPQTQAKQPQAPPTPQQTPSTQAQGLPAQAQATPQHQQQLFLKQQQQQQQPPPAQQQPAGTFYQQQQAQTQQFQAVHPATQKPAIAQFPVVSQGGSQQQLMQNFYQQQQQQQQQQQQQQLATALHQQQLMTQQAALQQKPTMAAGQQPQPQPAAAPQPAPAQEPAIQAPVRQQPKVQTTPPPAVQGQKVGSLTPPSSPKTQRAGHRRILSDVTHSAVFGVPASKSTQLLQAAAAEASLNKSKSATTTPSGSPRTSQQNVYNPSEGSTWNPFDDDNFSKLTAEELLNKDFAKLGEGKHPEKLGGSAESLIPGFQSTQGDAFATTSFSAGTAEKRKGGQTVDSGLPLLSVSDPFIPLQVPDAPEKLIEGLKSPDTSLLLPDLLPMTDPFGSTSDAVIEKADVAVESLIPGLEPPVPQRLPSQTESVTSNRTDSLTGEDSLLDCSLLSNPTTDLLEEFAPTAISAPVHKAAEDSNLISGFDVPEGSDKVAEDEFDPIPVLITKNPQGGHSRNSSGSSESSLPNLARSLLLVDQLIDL

ACOX1 = biological target: T2, ACOX1 (Homo sapiens, UniProt Q15067); test: Kinobeads two-dose competition binding: ACOX1; conditions: sheet CATDS matrix 2; Gene Name ACOX1;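 note: competition of compounds with immobilized broad-spectrum kinase inhibitor beads in cell lysate at 100 and 1,000 nM, 45 min at 4 °C, bead-bound protein quantified by label-free MS versus DMSO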
T2 construct: endogenous in cells
T2 sequence (Q15067 1-660): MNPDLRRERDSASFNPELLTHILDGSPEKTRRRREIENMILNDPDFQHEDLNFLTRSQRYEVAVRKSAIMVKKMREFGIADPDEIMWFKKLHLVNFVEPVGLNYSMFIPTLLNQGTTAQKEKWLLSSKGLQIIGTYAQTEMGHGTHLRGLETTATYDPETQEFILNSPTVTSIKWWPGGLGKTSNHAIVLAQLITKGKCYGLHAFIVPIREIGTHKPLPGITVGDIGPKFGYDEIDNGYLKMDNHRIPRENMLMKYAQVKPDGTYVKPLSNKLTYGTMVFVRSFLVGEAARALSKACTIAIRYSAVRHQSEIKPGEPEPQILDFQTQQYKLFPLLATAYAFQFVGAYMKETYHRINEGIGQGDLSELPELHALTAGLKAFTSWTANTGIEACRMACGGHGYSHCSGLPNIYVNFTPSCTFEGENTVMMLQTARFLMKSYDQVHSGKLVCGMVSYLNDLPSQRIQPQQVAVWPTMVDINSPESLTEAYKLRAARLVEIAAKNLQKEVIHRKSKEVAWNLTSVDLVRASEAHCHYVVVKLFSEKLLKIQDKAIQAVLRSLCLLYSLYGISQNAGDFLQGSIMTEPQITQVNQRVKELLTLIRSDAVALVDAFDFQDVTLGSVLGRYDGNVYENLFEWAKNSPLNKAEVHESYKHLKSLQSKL

ACAD11 = biological target: T3, ACAD11 (Homo sapiens, UniProt Q709F0); test: Kinobeads two-dose competition binding: ACAD11; conditions: sheet CATDS matrix 2; Gene Name ACAD11
T3 construct: endogenous in cells
T3 sequence (Q709F0 1-780): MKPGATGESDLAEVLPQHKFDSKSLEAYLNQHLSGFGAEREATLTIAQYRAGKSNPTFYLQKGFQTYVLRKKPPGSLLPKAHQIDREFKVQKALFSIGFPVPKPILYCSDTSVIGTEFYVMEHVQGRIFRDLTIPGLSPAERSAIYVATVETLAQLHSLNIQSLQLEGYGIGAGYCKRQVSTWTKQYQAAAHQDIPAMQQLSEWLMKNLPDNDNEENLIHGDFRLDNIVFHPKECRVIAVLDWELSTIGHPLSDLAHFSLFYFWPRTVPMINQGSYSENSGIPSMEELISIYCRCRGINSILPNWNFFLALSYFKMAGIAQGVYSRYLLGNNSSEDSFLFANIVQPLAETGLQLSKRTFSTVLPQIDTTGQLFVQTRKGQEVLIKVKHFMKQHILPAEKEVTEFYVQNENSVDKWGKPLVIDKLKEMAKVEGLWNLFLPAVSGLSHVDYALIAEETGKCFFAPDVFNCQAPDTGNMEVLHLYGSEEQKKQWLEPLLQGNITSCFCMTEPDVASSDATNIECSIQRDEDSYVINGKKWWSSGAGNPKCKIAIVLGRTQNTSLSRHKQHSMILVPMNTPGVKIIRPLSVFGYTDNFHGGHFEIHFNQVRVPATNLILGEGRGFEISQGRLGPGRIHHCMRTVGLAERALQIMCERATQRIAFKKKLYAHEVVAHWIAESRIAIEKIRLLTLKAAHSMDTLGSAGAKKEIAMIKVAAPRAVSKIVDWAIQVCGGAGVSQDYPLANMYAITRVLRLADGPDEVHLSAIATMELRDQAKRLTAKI

ABL2 = biological target: T4, ABL2 (Homo sapiens, UniProt P42684); test: Kinobeads two-dose competition binding: ABL2; conditions: sheet CATDS matrix 2; Gene Name ABL2
T4 construct: endogenous in cells
T4 sequence (P42684 whole entry): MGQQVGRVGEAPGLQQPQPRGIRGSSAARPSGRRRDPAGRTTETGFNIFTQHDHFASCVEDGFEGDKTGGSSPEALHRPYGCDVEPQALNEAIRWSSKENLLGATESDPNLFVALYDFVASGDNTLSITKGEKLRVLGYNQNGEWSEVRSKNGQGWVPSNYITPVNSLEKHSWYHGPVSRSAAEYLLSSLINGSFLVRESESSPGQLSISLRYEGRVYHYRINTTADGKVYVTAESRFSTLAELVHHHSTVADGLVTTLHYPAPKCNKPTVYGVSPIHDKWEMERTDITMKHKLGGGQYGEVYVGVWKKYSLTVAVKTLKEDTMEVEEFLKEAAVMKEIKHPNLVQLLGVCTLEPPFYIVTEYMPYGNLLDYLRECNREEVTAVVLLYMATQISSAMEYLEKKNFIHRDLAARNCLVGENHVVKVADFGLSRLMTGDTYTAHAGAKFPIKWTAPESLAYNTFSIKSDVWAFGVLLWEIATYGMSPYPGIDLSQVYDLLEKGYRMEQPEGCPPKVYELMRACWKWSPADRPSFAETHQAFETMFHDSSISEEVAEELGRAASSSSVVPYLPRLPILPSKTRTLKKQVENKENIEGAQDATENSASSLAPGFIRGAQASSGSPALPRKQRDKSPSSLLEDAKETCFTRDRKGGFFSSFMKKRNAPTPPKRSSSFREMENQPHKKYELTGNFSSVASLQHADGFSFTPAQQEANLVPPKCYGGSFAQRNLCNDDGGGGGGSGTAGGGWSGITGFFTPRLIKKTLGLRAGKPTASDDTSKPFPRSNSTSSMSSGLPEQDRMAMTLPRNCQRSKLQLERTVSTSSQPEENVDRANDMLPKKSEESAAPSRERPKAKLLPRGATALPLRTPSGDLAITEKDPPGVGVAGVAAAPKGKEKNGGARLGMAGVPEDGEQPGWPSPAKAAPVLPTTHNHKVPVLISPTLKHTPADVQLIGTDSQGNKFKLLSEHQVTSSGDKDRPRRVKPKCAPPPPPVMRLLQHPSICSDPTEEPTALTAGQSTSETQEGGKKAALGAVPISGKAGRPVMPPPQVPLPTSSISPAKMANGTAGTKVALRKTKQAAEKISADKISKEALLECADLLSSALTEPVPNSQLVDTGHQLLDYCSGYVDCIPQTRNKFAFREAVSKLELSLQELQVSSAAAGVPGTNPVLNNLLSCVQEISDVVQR

ABL1 = ABL1 (Homo sapiens, UniProt P00519); test: Kinobeads two-dose competition binding: ABL1; conditions: sheet CATDS matrix 2; Gene Name ABL1
Sequence of ABL1 (P00519 28-1130 limits assumed): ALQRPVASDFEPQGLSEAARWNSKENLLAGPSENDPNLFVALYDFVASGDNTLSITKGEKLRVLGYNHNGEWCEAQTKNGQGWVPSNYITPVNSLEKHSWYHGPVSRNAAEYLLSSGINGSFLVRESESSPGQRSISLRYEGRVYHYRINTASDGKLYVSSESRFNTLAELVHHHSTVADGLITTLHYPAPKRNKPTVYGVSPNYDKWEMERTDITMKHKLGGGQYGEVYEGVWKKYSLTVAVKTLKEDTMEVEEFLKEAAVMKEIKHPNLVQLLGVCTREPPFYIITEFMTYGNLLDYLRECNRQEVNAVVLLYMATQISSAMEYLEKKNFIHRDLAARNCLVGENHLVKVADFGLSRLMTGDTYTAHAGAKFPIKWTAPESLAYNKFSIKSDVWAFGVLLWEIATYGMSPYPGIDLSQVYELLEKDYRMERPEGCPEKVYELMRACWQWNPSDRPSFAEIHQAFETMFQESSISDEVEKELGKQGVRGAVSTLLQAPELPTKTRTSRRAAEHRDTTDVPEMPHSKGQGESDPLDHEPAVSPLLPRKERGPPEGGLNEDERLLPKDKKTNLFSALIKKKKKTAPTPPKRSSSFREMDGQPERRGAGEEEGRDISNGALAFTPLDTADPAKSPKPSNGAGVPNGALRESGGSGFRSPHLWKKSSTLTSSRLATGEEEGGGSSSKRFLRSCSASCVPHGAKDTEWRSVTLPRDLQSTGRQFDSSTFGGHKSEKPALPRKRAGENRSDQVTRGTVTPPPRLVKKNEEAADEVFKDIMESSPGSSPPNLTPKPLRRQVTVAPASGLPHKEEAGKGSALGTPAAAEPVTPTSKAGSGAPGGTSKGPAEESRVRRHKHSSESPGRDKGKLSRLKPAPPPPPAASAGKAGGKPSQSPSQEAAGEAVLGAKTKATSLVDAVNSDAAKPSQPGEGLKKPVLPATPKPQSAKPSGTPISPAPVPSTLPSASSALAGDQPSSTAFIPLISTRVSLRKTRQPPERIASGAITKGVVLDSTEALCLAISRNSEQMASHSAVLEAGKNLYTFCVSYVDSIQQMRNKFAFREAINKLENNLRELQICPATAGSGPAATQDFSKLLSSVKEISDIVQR

O=C(Nc1c[nH]nc1-c1nc2ccc(CN3CCOCC3)cc2[nH]1)NC1CC1 [AT-9283, reference compound]
CATDS (AAK1): 0.0448 | CATDS (ACOX1): 0 | CATDS (ACAD11): 0 | CATDS (ABL2): 0

CNC(=O)c1ccccc1Sc1ccc2c(/C=C/c3ccccn3)n[nH]c2c1 [Axitinib, reference compound]
CATDS (AAK1): 0 | CATDS (ACOX1): 0 | CATDS (ACAD11): 0 | CATDS (ABL2): 0

CCC(NN(C)C)=C1C(=O)Nc2ccc(C(C)=O)cc21 [BI00036838]
CATDS (AAK1): 0 | CATDS (ABL1): 0 | CATDS (ACOX1): 0 | CATDS (ACAD11): 0 | CATDS (ABL2): 0

CC(C)C(=O)N[C@@H]1CCN(C(=O)Nc2nc3c(s2)-c2nc(-c4ccccc4Cl)ncc2CC3)C1 [BI00047804]
CATDS (AAK1): 0 | CATDS (ABL1): 0 | CATDS (ACOX1): 0 | CATDS (ACAD11): 0 | CATDS (ABL2): 0

COc1cc2ncnc(Nc3cccc(Cl)c3F)c2cc1O[C@H]1CC[C@@]2(CC1)NCCNC2=O [BI00113608]
CATDS (AAK1): 0 | CATDS (ABL1): 0 | CATDS (ACOX1): 0 | CATDS (ACAD11): 0 | CATDS (ABL2): 0

COc1cc2ncnc(Nc3cccc(Cl)c3F)c2cc1O[C@H]1CC[C@H]([C@@H]2NCCNC2=O)CC1 [BI00133844]
CATDS (AAK1): 0 | CATDS (ABL1): 0 | CATDS (ACOX1): 0 | CATDS (ACAD11): 0 | CATDS (ABL2): 0

O=c1[nH]c2cc(Nc3ccc(F)cc3F)ccc2n1CC1CCCCC1 [BI00601000]
CATDS (AAK1): 0 | CATDS (ABL1): 0 | CATDS (ACOX1): 0 | CATDS (ACAD11): 0 | CATDS (ABL2): 0

CCCc1cc(N2CCCN(C)CC2)nc2sc3c(N)ncnc3c12 [BI00604564]
potency estimated from few doses (AAK1): > 1 µM | CATDS (AAK1): 0 | CATDS (ABL1): 0 | CATDS (ACOX1): 0 | CATDS (ACAD11): 0 | CATDS (ABL2): 0

NCC1CNC(=O)c2cc3ccc(C(=O)Nc4cccnc4)cc3n2C1 (centres unmarked) [BI00614644]
CATDS (AAK1): 0 | CATDS (ABL1): 0 | CATDS (ACOX1): 0 | CATDS (ACAD11): 0 | CATDS (ABL2): 0

C[C@@H]1CCNC(=O)c2cc3ccc(C(=O)Nc4nc5ccccc5n4CCCN(C)C)cc3n21 [BI00645435]
CATDS (AAK1): 0 | CATDS (ABL1): 0 | CATDS (ACOX1): 0 | CATDS (ACAD11): 0 | CATDS (ABL2): 0

CCCNC(=O)c1ccc(Nc2ncc(C(F)(F)F)c(Nc3ccccc3C(C)=O)n2)c(Br)c1 [BI00801818]
CATDS (AAK1): 0 | CATDS (ABL1): 0 | CATDS (ACOX1): 0 | CATDS (ACAD11): 0 | CATDS (ABL2): 0

CCCS(=O)(=O)Nc1ccc(F)c(-n2cc(-c3cncc(OC)c3)nn2)c1F [BI00865461]
CATDS (AAK1): 0 | CATDS (ABL1): 0 | CATDS (ACOX1): 0 | CATDS (ACAD11): 0 | CATDS (ABL2): 0

NC(=O)c1cccnc1COc1cc(-c2ccc(N3CCOCC3)nc2)cc2ncccc12 [BI01125081]
CATDS (AAK1): 0 | CATDS (ABL1): 0 | CATDS (ACOX1): 0 | CATDS (ACAD11): 0 | CATDS (ABL2): 0

COc1cc2c(cc1OC)C(=C(Nc1ccccc1)c1cccc(CN)c1)C(=O)N2 [BIBF0846CL]
CATDS (AAK1): 0 | CATDS (ABL1): 0 | CATDS (ACOX1): 0 | CATDS (ACAD11): 0 | CATDS (ABL2): 0

COc1cc2ncnc(Nc3ccc(F)c(Cl)c3)c2cc1O[C@H]1CC[C@H](N)CC1 [BIBW3133BS]
CATDS (AAK1): 0 | CATDS (ABL1): 0 | CATDS (ACOX1): 0 | CATDS (ACAD11): 0 | CATDS (ABL2): 0

Cc1ccc(-n2nc(C(C)(C)C)cc2NC(=O)Nc2ccc(OCCN3CCOCC3)cc2)cc1 [BIRB0876BS]
CATDS (AAK1): 0 | CATDS (ABL1): 0 | CATDS (ACOX1): 0 | CATDS (ACAD11): 0 | CATDS (ABL2): 0

NCC1CCC(CNc2nc(NCc3ccccc3OC(F)(F)F)ncc2[N+](=O)[O-])CC1 (centres unmarked) [BIRZ0518XX]
CATDS (AAK1): 0 | CATDS (ABL1): 0 | CATDS (ACOX1): 0 | CATDS (ACAD11): 0 | CATDS (ABL2): 0

C=CC(=O)Nc1cc(-n2c(=O)ccc3cnc4ccc(-c5ccc(NS(C)(=O)=O)cc5)cc4c32)ccc1C [BMX-IN-1]
CATDS (AAK1): 0 | CATDS (ABL1): 0 | CATDS (ACOX1): 0 | CATDS (ACAD11): 0 | CATDS (ABL2): 0

CCS(=O)(=O)N1CC(CC#N)(n2cc(-c3ncnc4[nH]ccc34)cn2)C1 [Baricitinib, reference compound]
CATDS (AAK1): 0.1267 | CATDS (ABL1): 0 | CATDS (ACOX1): 0 | CATDS (ACAD11): 0 | CATDS (ABL2): 0

Cn1cnc2c(F)c(Nc3ccc(Br)cc3F)c(C(=O)NOCCO)cc21 [Binimetinib, reference compound]
CATDS (AAK1): 0 | CATDS (ABL1): 0 | CATDS (ACOX1): 0 | CATDS (ACAD11): 0 | CATDS (ABL2): 0

COc1cc(Nc2c(C#N)cnc3cc(OCCCN4CCN(C)CC4)c(OC)cc23)c(Cl)cc1Cl [Bosutinib, reference compound]
CATDS (ACOX1): 0 | CATDS (ACAD11): 0

COc1cc(N2CCC(N3CCN(C)CC3)CC2)ccc1Nc1ncc(Cl)c(Nc2ccccc2P(C)(C)=O)n1 [Brigatinib, reference compound]
CATDS (AAK1): 0.01731 | CATDS (ABL1): 0 | CATDS (ACOX1): 0 | CATDS (ACAD11): 0 | CATDS (ABL2): 0

C[C@@H](Oc1cc(-c2cnn(C3CCNCC3)c2)cnc1N)c1c(Cl)ccc(F)c1Cl [Crizotinib, reference compound]
CATDS (AAK1): 0 | CATDS (ACOX1): 0 | CATDS (ACAD11): 0 | CATDS (ABL2): 0.04718

CC(C)(C)c1nc(-c2cccc(NS(=O)(=O)c3c(F)cccc3F)c2F)c(-c2ccnc(N)n2)s1 [Dabrafenib, reference compound]
CATDS (AAK1): 0 | CATDS (ACOX1): 0 | CATDS (ACAD11): 0 | CATDS (ABL2): 0.02813

CO[C@@H](C(=O)N1Cc2n[nH]c(NC(=O)c3ccc(N4CCN(C)CC4)cc3)c2C1)c1ccccc1 [Danusertib, reference compound]
CATDS (AAK1): 0 | CATDS (ACOX1): 0 | CATDS (ACAD11): 0 | CATDS (ABL2): 0.05811

Cc1nc(Nc2ncc(C(=O)Nc3c(C)cccc3Cl)s2)cc(N2CCN(CCO)CC2)n1 [Dasatinib, reference compound]
CATDS (AAK1): 0 | CATDS (ACOX1): 0 | CATDS (ACAD11): 0 | CATDS (ABL2): 0.1826

C#Cc1cccc(Nc2ncnc3cc(OCCOC)c(OCCOC)cc23)c1 [Erlotinib, reference compound]
CATDS (AAK1): 0 | CATDS (ABL1): 0

COc1cc2ncnc(Nc3cccc(Br)c3)c2cc1OC [GI230329A]
CATDS (AAK1): 0 | CATDS (ACOX1): 0 | CATDS (ACAD11): 0 | CATDS (ABL2): 0

COc1ccc(CNC(=O)NC2CCN(c3ccnc(Nc4cc(OC)c(OC)c(OC)c4)n3)C2)cc1 (centres unmarked) [GSK1379748A]
potency estimated from few doses (AAK1): > 1 µM

COc1cccc(NC(=O)NC2CCN(c3ccnc(Nc4cc(OC)c(OC)c(OC)c4)n3)C2)c1 (centres unmarked) [GSK1379763A]
potency estimated from few doses (AAK1): > 1 µM

O=c1[nH]ccc2nc(N[C@@H]3CCCNC3)nc(Nc3ccc(S(=O)(=O)N4CCOCC4)cc3)c12 [GSK2177277A]
potency estimated from few doses (AAK1): 0.0641 µM | CATDS (AAK1): 0.01814 | CATDS (ABL1): 0 | CATDS (ACOX1): 0 | CATDS (ABL2): 0

CNc1nc(-c2ccc3c(N)n[nH]c3c2)cc(N2C[C@@H](C(=O)NC3CCCCC3)CC[C@H]2C)n1 [GSK2334470]
CATDS (AAK1): 0 | CATDS (ACOX1): 0 | CATDS (ACAD11): 0 | CATDS (ABL2): 0

COc1cc2ncnc(Nc3ccc(F)c(Cl)c3)c2cc1OCCCN1CCOCC1 [Gefitinib, reference compound]
CATDS (AAK1): 0
